Assay [1] deals with liposarcoma cell lines. Nature of the assay: IncuCyte cell proliferation assay (growth reducing/arresting concentration). Format: cell-based, human. The following applies: complete growth arrest between 96 and 120h. The protocol: The cellular proliferation rate was measured using the IncuCyte ZOOM live-cell imaging system (Essen Bioscience, Birmingham, UK) with the corresponding software application (version 2013BRev1). First the growth rate for each cell line was established to estimate the seeding numbers of cells corresponding to 15-30% of confluence at the start of the experiment and maximum 70% after 72h. The drug treatment was initiated approximately 18h after seeding. The proliferation rate was measured as cell confluence over time through the acquisition of photographs under phase contrast every third hour for the entire duration of the drug treatment. During the drug treatment, media were not changed, and cells were not split. The growth reducing drug concentration was defined as lowest drug concentration leading to significant decrease of cellular growth between 40 and 72h after start of treatment. To determine that concentration, plots were generated using IncuCyte software and differences in growth between 40 and 72h were calculated using least-square means with the '[…] package version 1.4.3 [25]. Growth arresting concentrations were defined as minimal drug concentration under which cell confluence between 96 and 120h increases by less than 3%. Though growth arrest occurred much earlier, these time points ensured that the growth arrest is a stable phenomenon. These growth arresting concentrations were used for drug withdrawal, apoptosis and cell cycle experiments. All the data were verified with the plots. The presented values correspond to median values from two ([…], all compounds) to five (all cell lines, triptolide) biological replicates.

Assay [2] deals with all cancer cell lines (NCI-60). Details: method as in NCI-60 project. Conditions: ref NCI-60 project; cited from earlier work.

Here are results for two compounds from paper PMC7946228, “Discovery of novel candidates for anti-liposarcoma therapies by medium-scale high-throughput drug screening” (PLoS ONE, 2021).

As for `O=C(/C=C/c1cccnc1)NCCCCC1CCN(C(=O)c2ccccc2)CC1` [APO866], the “concentration arresting the majority of the cell lines” value in assay [1] was found to be 10 nM.
In the case of `CC(C)[C@]12O[C@H]1[C@@H]1O[C@]13[C@]1(O[C@H]1C[C@H]1C4=C(CC[C@@]13C)C(=O)OC4)[C@@H]2O` [Triptolide], in assay [1], the “concentration arresting the majority of the cell lines” value worked out at 10 nM. Also, the IC50 in assay [2] is 12 nM.

As usually defined, the IC50 is the point on the concentration scale where inhibition reaches its midpoint.
